Like-named read-outs stand apart in the source and are kept apart here.
Assays:
Assay type in all cases: cell-based
[1] = molecular target: T1, hGIPR (Homo sapiens, UniProt P48546); assay: Functional cAMP formation (HTRF) in HEK-293 clonal cells expressing hGIPR, 0.1% bovine casein, without or with 1.0% human serum albumin; conditions: for Emax: percent of maximal response to GIP(1-42)NH2
T1 construct: expressed in transfected cells
T1 sequence (P48546 22-466): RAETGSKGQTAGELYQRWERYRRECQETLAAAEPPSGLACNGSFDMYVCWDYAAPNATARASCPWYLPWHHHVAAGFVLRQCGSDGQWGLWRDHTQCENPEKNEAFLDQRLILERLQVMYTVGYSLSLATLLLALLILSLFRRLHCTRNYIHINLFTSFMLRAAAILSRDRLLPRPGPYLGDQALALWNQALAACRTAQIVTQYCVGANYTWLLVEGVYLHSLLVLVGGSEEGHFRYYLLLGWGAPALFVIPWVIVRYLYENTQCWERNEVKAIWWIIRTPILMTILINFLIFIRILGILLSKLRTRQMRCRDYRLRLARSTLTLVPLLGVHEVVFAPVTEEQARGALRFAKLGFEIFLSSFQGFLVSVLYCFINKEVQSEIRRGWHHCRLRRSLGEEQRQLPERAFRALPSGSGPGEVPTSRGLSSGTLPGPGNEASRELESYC
In short: (§1)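 Cells were stimulated with peptide for 30 min at 37° C, then lysed in buffer carrying cAMP-d2 and anti-cAMP Eu3+-cryptate for a competitive HTRF read after at least 60 min at room temperature. The 665/620 nm ratio was converted to nM cAMP against a standard curve.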

[2] = molecular target: hGLP-1R (Homo sapiens, UniProt P43220); assay: Functional cAMP formation (HTRF) in HEK-293 clonal cells expressing hGLP-1R, 0.1% bovine casein, without or with 1.0% human serum albumin; parameters: expressed in transfected cells; conditions: for Emax: percent of maximal response to GLP-1(7-36)NH2; for EC50: cAMP, 0.1% bovine casein (no human serum albumin), geometric mean
In short: as §1

[3] = molecular target: T2, hGCGR (Homo sapiens, UniProt P47871); assay: Functional cAMP formation (HTRF) in HEK-293 clonal cells expressing hGCGR, 0.1% bovine casein, without or with 1.0% human serum albumin; conditions: 37° C.
T2 construct: expressed in transfected cells
In short: as §1

T2 sequence (P47871 26-477): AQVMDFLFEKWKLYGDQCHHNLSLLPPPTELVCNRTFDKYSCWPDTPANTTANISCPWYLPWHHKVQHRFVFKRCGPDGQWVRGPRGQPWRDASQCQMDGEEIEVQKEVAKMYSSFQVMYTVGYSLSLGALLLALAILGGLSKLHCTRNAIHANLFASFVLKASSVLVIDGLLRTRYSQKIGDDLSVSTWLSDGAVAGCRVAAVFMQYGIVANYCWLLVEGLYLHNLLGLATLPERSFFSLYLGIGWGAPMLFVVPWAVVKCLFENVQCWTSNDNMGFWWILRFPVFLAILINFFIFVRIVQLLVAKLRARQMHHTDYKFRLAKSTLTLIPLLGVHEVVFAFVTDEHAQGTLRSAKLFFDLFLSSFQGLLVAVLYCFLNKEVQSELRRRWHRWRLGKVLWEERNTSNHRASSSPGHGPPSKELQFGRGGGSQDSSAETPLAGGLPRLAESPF
Sequence of hGLP-1R (P43220 24-463): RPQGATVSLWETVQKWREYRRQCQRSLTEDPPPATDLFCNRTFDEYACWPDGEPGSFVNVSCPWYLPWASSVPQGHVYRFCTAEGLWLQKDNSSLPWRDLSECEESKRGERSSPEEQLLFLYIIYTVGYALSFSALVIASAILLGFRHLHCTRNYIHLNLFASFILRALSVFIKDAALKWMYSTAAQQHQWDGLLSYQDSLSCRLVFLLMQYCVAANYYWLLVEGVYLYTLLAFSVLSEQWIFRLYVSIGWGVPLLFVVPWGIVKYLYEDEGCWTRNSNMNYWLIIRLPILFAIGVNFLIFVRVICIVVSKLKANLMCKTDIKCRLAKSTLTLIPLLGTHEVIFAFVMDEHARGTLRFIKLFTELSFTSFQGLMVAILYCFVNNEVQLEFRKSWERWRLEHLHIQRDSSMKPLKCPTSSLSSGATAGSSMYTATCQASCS

Structure (SMILES): CC[C@H](C)[C@H](NC(=O)[C@H](CCCN)NC(=O)[C@H](CC(=O)O)NC(=O)[C@H](CC(C)C)NC(=O)[C@](C)(CC(C)C)NC(=O)[C@@H](NC(=O)C(C)(C)NC(=O)[C@H](Cc1ccncc1)NC(=O)[C@H](CC(=O)O)NC(=O)[C@H](CO)NC(=O)[C@@H](NC(=O)[C@](C)(Cc1ccccc1F)NC(=O)[C@@H](NC(=O)CNC(=O)[C@H](CCC(=O)O)NC(=O)C(C)(C)NC(=O)[C@@H](N)Cc1ccc(O)cc1)[C@@H](C)O)[C@@H](C)O)[C@@H](C)CC)C(=O)N[C@@H](C)C(=O)N[C@@H](CCC(N)=O)C(=O)NC(C)(C)C(=O)N[C@@H](CCC(=O)O)C(=O)N[C@@H](Cc1ccccc1)C(=O)N[C@H](C(=O)N[C@@H](CCCCNC(=O)COCCOCCNC(=O)COCCOCCNC(=O)CC[C@H](NC(=O)CCCCCCCCCCOc1ccc(C(=O)O)cc1)C(=O)O)C(=O)N[C@@](C)(Cc1ccc(O)cc1)C(=O)N[C@@H](CC(C)C)C(=O)N[C@H](C(=O)N[C@@H](CCCCNC(=O)COCCOCCNC(=O)COCCOCCNC(=O)CC[C@H](NC(=O)CCCCCCCCCCOc1ccc(C(=O)O)cc1)C(=O)O)C(=O)NCC(=O)NCC(=O)N1CCC[C@H]1C(=O)N[C@@H](CO)C(=O)N[C@@H](CO)C(=O)NCC(=O)N[C@@H](C)C(=O)N1CCC[C@H]1C(=O)N1CCC[C@H]1C(=O)N1CCC[C@H]1C(=O)N[C@@H](CO)C(N)=O)[C@@H](C)CC)[C@@H](C)CC [Example 311]
- Emax ([1]; HEK293, read-out: hGIPR Emax, % ± SEM, 0.1% bovine casein and 1.0% human serum albumin, 37° C.): 98.3%
- Emax ([1]; HEK293, read-out: hGIPR Emax, % ± SEM, cAMP, 37° C., 0.1% bovine casein, arithmetic mean): 105%
- EC50 ([1]; hGIPR EC50, nM (SEM, n), 0.1% bovine casein and 1.0% human serum albumin, 37° C., geometric mean): 2.16 nM
- EC50 ([1]; hGIPR EC50, nM (SEM, n), cAMP, 37° C., 0.1% bovine casein (no human serum albumin), geometric mean): 0.0243 nM
- Emax ([2]; HEK293, read-out: hGLP-1R Emax, % ± SEM, cAMP, 37° C., 0.1% bovine casein, arithmetic mean): 110%
- EC50 ([2]; hGLP-1R EC50, nM (SEM, n), 37° C.): 0.791 nM
- EC50 ([3]; hGCGR EC50, nM (SEM, n), 0.1% bovine casein and 1.0% human serum albumin, geometric mean): > 9950 nM
- EC50 ([3]; hGCGR EC50, nM (SEM, n), cAMP, 0.1% bovine casein (no human serum albumin), geometric mean): > 9950 nM

Structure (SMILES): CC[C@H](C)[C@H](NC(=O)[C@H](CCCN)NC(=O)[C@H](CC(=O)O)NC(=O)[C@H](CC(C)C)NC(=O)[C@](C)(CC(C)C)NC(=O)[C@@H](NC(=O)C(C)(C)NC(=O)[C@H](Cc1ccc(O)cc1)NC(=O)[C@H](CC(=O)O)NC(=O)[C@H](CO)NC(=O)[C@@H](NC(=O)[C@](C)(Cc1ccccc1F)NC(=O)[C@@H](NC(=O)CNC(=O)[C@H](CCC(=O)O)NC(=O)C(C)(C)NC(=O)[C@@H](N)Cc1ccc(O)cc1)[C@@H](C)O)[C@@H](C)O)[C@@H](C)CC)C(=O)N[C@@H](C)C(=O)N[C@@H](CCC(N)=O)C(=O)NC(C)(C)C(=O)N[C@@H](CCC(=O)O)C(=O)N[C@@H](Cc1ccccc1)C(=O)N[C@H](C(=O)N[C@@H](CCCCNC(=O)COCCOCCNC(=O)COCCOCCNC(=O)CC[C@H](NC(=O)COCCOCCNC(=O)CCCCCCCCCCCCC(=O)O)C(=O)O)C(=O)N[C@@](C)(Cc1ccc(O)cc1)C(=O)N[C@@H](CC(C)C)C(=O)N[C@H](C(=O)N[C@@H](CCCCNC(=O)COCCOCCNC(=O)COCCOCCNC(=O)CC[C@H](NC(=O)COCCOCCNC(=O)CCCCCCCCCCCCC(=O)O)C(=O)O)C(=O)NCC(=O)NCC(=O)N1CCC[C@H]1C(=O)N[C@@H](CO)C(=O)N[C@@H](CO)C(=O)NCC(=O)N[C@@H](C)C(=O)N1CCC[C@H]1C(=O)N1CCC[C@H]1C(=O)N1CCC[C@H]1C(=O)N[C@@H](CO)C(N)=O)[C@@H](C)CC)[C@@H](C)CC [Example 363]
- Emax ([1]; HEK293, cAMP, 37° C., 0.1% bovine casein and 1.0% human serum albumin, read-out: hGIPR Emax, % ± SEM): 91.1%
- Emax ([1]; HEK293, cAMP, 37° C., 0.1% bovine casein, arithmetic mean, read-out: hGIPR Emax, % ± SEM): 111%
- EC50 ([1]; cAMP, 37° C., 0.1% bovine casein (no human serum albumin), geometric mean, read-out: hGIPR EC50, nM (SEM, n)): 0.0183 nM
- EC50 ([1]; cAMP, 37° C., 0.1% bovine casein and 1.0% human serum albumin, geometric mean (SEM, n), read-out: hGIPR EC50, nM (SEM, n)): 0.976 nM
- Emax ([2]; HEK293, cAMP, 37° C., 0.1% bovine casein and 1.0% human serum albumin, read-out: hGLP-1R Emax, % ± SEM): 111%
- EC50 ([2]; 37° C., read-out: hGLP-1R EC50, nM (SEM, n)): 0.34 nM
- EC50 ([3]; cAMP, 0.1% bovine casein (no human serum albumin), geometric mean, read-out: hGCGR EC50, nM (SEM, n)): > 9950 nM
- EC50 ([3]; cAMP, 0.1% bovine casein and 1.0% human serum albumin, geometric mean (SEM, n), read-out: hGCGR EC50, nM (SEM, n)): > 9950 nM

From patent US20230265151A1, “GIP/GLP1 CO-AGONIST COMPOUNDS” (priority 2020, published 2023)
